The subject of the experiment is Bifidobacterium lactis PTA-4802. Description: Antibiotic sensitivity profile (NCCLS M11-A5 agar dilution MIC). The following applies: MRS + cysteine agar; sensitivity of strain PTA-4802 to the antibiotic. The experiment is classed as cell-based. Background: In agar dilution, organisms are placed on agar that contains the substance at set levels.

The text below walks through data of US7179460B2, “Bacterial composition and its use” (priority 2002, dated 2007).

In the case of `CC1(C)S[C@@H]2[C@H](NC(=O)Cc3ccccc3)C(=O)N2[C@H]1C(=O)O` [Penicillin G], the “Antibiotic Sensitivity (S/I/R)” value is “S (MIC <4 ug/ml = Sensitive (S))”.
As to Gentamicin, the “Antibiotic Sensitivity (S/I/R)” value is on record as “R (MIC >64 ug/ml = Resistant (R))”.
In the case of Neomycin, the “Antibiotic Sensitivity (S/I/R)” value was “R (MIC >64 ug/ml = Resistant (R))”.
The result for Polymyxin B reads “R (MIC >64 ug/ml = Resistant (R))”.
